Key:
Assay in all cases: relative viability (nuclei count vs DMSO), 5 days (fraction); higher = more cells survive
Fedratinib = compound: Cc1cnc(Nc2ccc(OCCN3CCCC3)cc2)nc1Nc1cccc(S(=O)(=O)NC(C)(C)C)c1 [Fedratinib]
Procedure, shortened: (§1)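 Hoechst staining, done together with fixation and permeabilisation, marked nuclei for 4× imaging and MetaXpress counting. This followed 5 days without medium change after lung cancer cell lines, kept overnight at 37 °C in 1536-well plates, were pinned with five library-drug doses (not always all listed) spaced by √10 on vehicle-anchored plates. Viability is the ratio of treated-well to vehicle-well nuclei, expressed as a median across plates. Plates passed only at control CV below 25% with at least one doubling.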

GW-2580 = compound: COC1=CC=C(C=C1)COC2=C(C=C(C=C2)CC3=CN=C(N=C3N)N)OC [GW-2580]
Procedure, shortened: as §1

GW-2580 + Bortezomib = compound: COC1=CC=C(C=C1)COC2=C(C=C(C=C2)CC3=CN=C(N=C3N)N)OC [GW-2580] + CC(C)C[C@H](NC(=O)[C@H](Cc1ccccc1)NC(=O)c1cnccn1)B(O)O [Bortezomib] (partner 0.002 µM)
Procedure, shortened: (§2)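 Cells from lung cancer lines were seeded into 1536-well plates and, one day later, dosed by pin tool. Treatments were either a single drug or a fixed dose of an anchor drug with five library-drug doses (not always all listed) in √10 steps. After 5 days, nuclei were stained in a one-step fixation (final 0.05% Triton X-100, 1% formaldehyde, 1 ug/ml Hoechst) and counted on 4× images, and relative viability is the treated-to-vehicle nuclei ratio, as the median of duplicate plates.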

GW-2580 + Pemetrexed = compound: COC1=CC=C(C=C1)COC2=C(C=C(C=C2)CC3=CN=C(N=C3N)N)OC [GW-2580] + Nc1nc2[nH]cc(CCc3ccc(C(=O)N[C@@H](CCC(=O)O)C(=O)O)cc3)c2c(=O)[nH]1 [Pemetrexed] (partner 0.2 µM)
Procedure, shortened: as §2

Row | Cell Line | relative viability (Fedratinib; 0.1 µM) | relative viability (Fedratinib; 0.3162 µM) | relative viability (Fedratinib; 1 µM) | relative viability (GW-2580; 0.08 µM) | relative viability (GW-2580; 0.8 µM) | relative viability (GW-2580; 2.53 µM) | relative viability (GW-2580; 8 µM) | relative viability (GW-2580 + Bortezomib; first compound 0.08 µM) | relative viability (GW-2580 + Bortezomib; first compound 0.8 µM) | relative viability (GW-2580 + Bortezomib; first compound 2.53 µM) | relative viability (GW-2580 + Bortezomib; first compound 8 µM) | relative viability (GW-2580 + Pemetrexed; first compound 0.08 µM) | relative viability (GW-2580 + Pemetrexed; first compound 0.8 µM) | relative viability (GW-2580 + Pemetrexed; first compound 2.53 µM) | relative viability (GW-2580 + Pemetrexed; first compound 8 µM)
1 | NCI-H1563 | 0.949 | 1.04 | 0.933 | 0.982 | 0.966 | 0.876 | 0.912 | 0.8 | 0.986 | 0.764 | 0.842 | 0.763 | 0.883 | 0.674 | 0.792
2 | NCI-H1650 | 0.715 | 1.01 | 0.748 | 1.08 | 1.11 | 0.83 | 1.05 | 0.218 | 0.232 | 0.164 | 0.199 | 0.468 | 0.391 | 0.418 | 0.371
3 | NCI-H1651 | 0.958 | 0.984 | 0.945 | 1.06 | 1.08 | 0.952 | 0.977 | 0.953 | 1.08 | 0.89 | 0.942 | 0.605 | 0.711 | 0.578 | 0.45
4 | NCI-H1666 | 0.859 | 1.04 | 0.982 | 0.976 | 1.38 | 0.937 | 0.97 | 0.727 | 1.2 | 0.791 | 0.89 | 0.863 | 0.91 | 0.901 | 0.787
5 | NCI-H1734 | 1 | 0.97 | 0.853 | 0.987 | 0.986 | 0.912 | 0.914 | 0.976 | 0.995 | 0.775 | 0.967 | 0.404 | 0.409 | 0.425 | 0.408
6 | NCI-H1755 | 0.991 | 1 | 0.909 | 1.06 | 1.07 | 0.944 | 0.878 | 1.03 | 1.1 | 0.883 | 0.852 | 0.677 | 0.474 | 0.429 | 0.43
7 | NCI-H1792 | 0.835 | 0.989 | 0.815 | 0.939 | 1.18 | 0.92 | 0.842 | 0.926 | 1.07 | 0.734 | 1.1 | 0.843 | 0.773 | 0.688 | 0.644
8 | NCI-H1915 | 1.03 | 0.97 | 0.658 | 1.04 | 1.02 | 1.07 | 0.969 | 1 | 1.11 | 0.959 | 1.05 | 0.519 | 0.53 | 0.509 | 0.486
9 | NCI-H1975 | 0.933 | 0.939 | 0.798 | 1.04 | 1.12 | 0.935 | 0.87 | 0.373 | 0.368 | 0.317 | 0.366 | 0.311 | 0.309 | 0.323 | 0.309
10 | NCI-H1993 | 0.822 | 1.03 | 0.835 | 0.86 | 1.16 | 0.764 | 1.1 | 1.27 | 1.33 | – | 0.995 | 0.601 | 0.703 | 0.54 | 0.576
11 | NCI-H2009 | 0.956 | 1.08 | 0.987 | 1.06 | 0.996 | 0.967 | 0.888 | 1.02 | 0.955 | 0.931 | 0.844 | 1.06 | 1.11 | 0.945 | 0.843

From the supplement of paper PMC10307832
